In US20190015423A1, “REGULATION OF GENE EXPRESSION BY MODULATING PRIMARY CILIA LENGTH” (THE TRUSTEES OF COLUMBIA UNIVERSITY IN THE CITY OF NEW YORK, priority 2016, published 2019):
“Also recorded” adds a separate entry of the source. Structures can show the parent of a compound that is named as a salt.

Key:
C57Bl/6 mice = test: Load-induced bone formation: compressive ulnar loading and dynamic histomorphometry; format: in vivo; conditions: ulnar load final 3 days
Description: All data are shown in reference to the non-loaded contralateral limb as control. […] On day 4-6 the mice were subjected to daily axial compressive ulnar loading. Mice were placed under isoflurane anesthesia and forelimbs were placed between two loading cups controlled by an electromagnetic loading system with feedback control (Bose, ELF 3220). An initial 0.1 N preload was applied, followed by 3 N of cyclic compression applied with a 2 Hz sine wave for 120 cycles, generating a strain gage verified average peak deformation of 1895 μstrain. On day 8, mice were subcutaneously injected with calcein (10 mg/kg) and alizarin red (70 mg/kg) on day 12. Mice were euthanized on day 18 and prepared for dynamic histomorphometric analysis.
Compressive ulnar loading was applied on days 5-7 to mechanically stimulate bone (3N at 2 Hz for 120 cycles) [9].
On the final three days of drug or control injection, animals were also subjected to compressive ulnar load at a peak load of 3 N using a 2 Hz sine wave for 120 cycles, as previously described (Temiyasathit, S. et al. PLoS One 7, (2012); Lee, K. L. et al. FASEB J. 28, 1157-1165 (2014)). Contralateral limbs served as a non-loaded control. 2 days following load, mice were treated with 10 mg/kg calcein (Sigma), and 4 days later 70 mg/kg alizarin (Sigma), with mice being sacrificed 6 days later.
Dynamic histomorphometry was performed as previously described, measuring the amount and separation of calcein and alizarin labels to quantify mineralizing surface (rMS/BS), mineral apposition rate (rMAR), and bone formation rate (rBFR/BS) relative to non-loaded controls (Temiyasathit, S. et al. PLoS One 7, (2012); Lee, K. L. et al. FASEB J. 28, 1157-1165 (2014)). Left and right ulnae were dissected and preserved in ethanol. Samples were then infiltrated with methyl methacrylate, and embedded in methyl methacrylate and benzoyl peroxide. Transverse sections of the ulnar midshaft were imaged on a laser scanning confocal microscope (Olympus Fluoview FV1000). Measurements of outer bone perimeter (OP), single label perimeter (SL), double label perimeter (DL), and double label area (DA) were made in ImageJ. The mineralizing surface relative to outer bone surface (MS/BS), mineral apposition rate (MAR), and bone formation rate (BFS/BS) were calculated as:
Relative measurements—rMS/BS, rMAR, rBFR/BS—were determined by subtracting non-loaded from loaded ulnae to display differences due to mechanical load.

[1] = system: Ovariectomized (OVX) mice; test: Load-induced bone formation in ovariectomized (OVX) osteoporotic mice; format: in vivo; conditions: fenoldopam 20 mg/kg 7 days, compressive ulnar load
Procedure: On the final three days of drug or control injection, animals were also subjected to compressive ulnar load at a peak load of 3 N using a 2 Hz sine wave for 120 cycles, as previously described ([…]. et al. PLoS One 7, (2012); Lee, K. L. et al. FASEB J. 28, 1157-1165 (2014)). Contralateral limbs served as a non-loaded control. 2 days following load, mice were treated with 10 mg/kg calcein (Sigma), and 4 days later 70 mg/kg alizarin (Sigma), with mice being sacrificed 6 days later. Dynamic histomorphometry was performed as previously described, measuring the amount and separation of calcein and alizarin labels to quantify mineralizing surface (rMS/BS), mineral apposition rate (rMAR), and bone formation rate (rBFR/BS) relative to non-loaded controls ([…]. et al. PLoS One 7, (2012); Lee, K. L. et al. FASEB J. 28, 1157-1165 (2014)). Left and right ulnae were dissected and preserved in ethanol. Samples were then infiltrated with methyl methacrylate, and embedded in methyl methacrylate and benzoyl peroxide. Transverse sections of the ulnar midshaft were imaged on a laser scanning confocal microscope (Olympus Fluoview FV1000). Measurements of outer bone perimeter (OP), single label perimeter (SL), double label perimeter (DL), and double label area (DA) were made in ImageJ. The mineralizing surface relative to outer bone surface (MS/BS), mineral apposition rate (MAR), and bone formation rate (BFS/BS) were calculated as: Relative measurements-rMS/BS, rMAR, rBFR/BS-were determined by subtracting non-loaded from loaded ulnae to display differences due to mechanical load. Ovariectomized (OVX) and Sham animals were purchased directly from Jackson Laboratories, with surgery performed at 12 weeks old. […] Dynamic histomorphometry was only performed on OVX animals, while Sham animals were used to confirm osteoporotic phenotype based on μCT analysis.

MC3T3 osteoblasts = test: Flow-induced paracrine signaling: conditioned media of treated osteocytes on osteoblasts (OPN mRNA); format: cell-based; conditions: osteocytes treated with fenoldopam 10 μM 16 hours; 12 hrs flow; osteoblasts cultured 24 hours
Adenylyl cyclase = Adenylyl cyclase activity: forskolin stimulated cAMP ELISA; format: cell-based
Procedure: Adenylyl cyclase activity was quantified by cAMP ELISA (Enzo). […] Cells were stimulated by 10 μM forskolin (Sigma) or DMSO vehicle control for 20 minutes prior to lysis with 0.1 M HCl. Cell lysate was analyzed according to manufacturer's protocol, and normalized to total protein quantified by BCA (Thermo Fisher). All samples and standards were run in duplicate.

[2] = fenoldopam 20 mg/kg s.c. 7 consecutive days, relative to non-loaded limb, vs vehicle
[3] = fenoldopam 20 mg/kg s.c. 7 consecutive days, relative to non-loaded limb, vs vehicle, listed as Fenoldopam
[4] = fenoldopam 50 mg/kg (Fen-High) s.c. 7 consecutive days

Oc1ccc(C2CNCCc3c2cc(O)c(O)c3Cl)cc1 (centres unmarked) [fenoldopam, Fenoldopam mesylate]
bone formation rate (rBFR/BS) (C57Bl/6 mice; [2]): significantly increased; also recorded: significant increases; also recorded: significantly enhanced | mineral apposition rate (rMAR) (C57Bl/6 mice; [2]): significantly increased; also recorded: significant increases | mineralizing surface (rMS/BS) (C57Bl/6 mice; [2]): remained unchanged; also recorded: neither fenoldopam concentration elicited a significant increase | bone formation rate (rBFR/BS) (C57Bl/6 mice; [3]): enhances | mineralizing surface (rMS/BS) (C57Bl/6 mice; [3]): no effect | bone formation rate (rBFR/BS) (C57Bl/6 mice; [4]): no statistically significant difference; also recorded: no effect; also recorded: elicited no bone formation response | mineral apposition rate (rMAR) (C57Bl/6 mice; [4]): no statistically significant difference; also recorded: no effect | mineralizing surface (rMS/BS) (C57Bl/6 mice; [4]): no statistically significant difference; also recorded: no effect | bone formation rate (rBFR/BS) compared to vehicle control [1]: increased | mineral apposition rate (rMAR) compared to vehicle control [1]: increased | mineralizing surface (rMS/BS) compared to vehicle control [1]: increased | osteoblast osteogenic gene (osteopontin, OPN) expression after conditioned media from flow-stimulated osteocytes (MC3T3 osteoblasts): increased; also recorded: significantly enhanced | enhancement of forskolin stimulated cAMP response compared to vehicle control (Adenylyl cyclase; 10 μM fenoldopam 16 hours, then 10 μM forskolin 20 minutes): 130%±25% | cAMP response to forskolin stimulation (in words) (Adenylyl cyclase; fenoldopam 16 h, then forskolin 20 min): significantly increases
